Ki, ED50 and Stimulation data for 45 molecules are collected here from ChEMBL document CHEMBL1147544, “N-alkyl-4-[(8-azabicyclo[3.2.1]-oct-3-ylidene)phenylmethyl]benzamides, micro and delta opioid agonists: a micro address” (Bioorg Med Chem Lett, 2004).

Assay [1] addresses Delta-type opioid receptor (Homo sapiens, UniProt P41143). In words: In vitro binding affinity towards opioid receptor delta 1.
For assay [2], the target named is T1, Mu-type opioid receptor (Homo sapiens, UniProt P35372). Nature of the assay: In vitro binding affinity towards opioid receptor mu 1. Details: species or system unidentified.
Assay [3] deals with Mus musculus. Nature of the assay: Antinociceptive activity by mouse hotplate test (55 degree C, po ). The class given is functional.
In assay [4] the target is T1, Mu-type opioid receptor. In words: Percentage stimulation of [35S]GTP-gamma-S, binding at the opioid receptor mu 1 at 10 uM. The assay is classed as functional.

One may read the Ki as a dissociation constant, usually derived from enzyme kinetics or from competition with a known ligand. A low value points to a stronger hold on the target. The ED50 is the dose that gives a 50% effect, or the effect in half of the subjects.

T1 sequence (P35372 whole entry): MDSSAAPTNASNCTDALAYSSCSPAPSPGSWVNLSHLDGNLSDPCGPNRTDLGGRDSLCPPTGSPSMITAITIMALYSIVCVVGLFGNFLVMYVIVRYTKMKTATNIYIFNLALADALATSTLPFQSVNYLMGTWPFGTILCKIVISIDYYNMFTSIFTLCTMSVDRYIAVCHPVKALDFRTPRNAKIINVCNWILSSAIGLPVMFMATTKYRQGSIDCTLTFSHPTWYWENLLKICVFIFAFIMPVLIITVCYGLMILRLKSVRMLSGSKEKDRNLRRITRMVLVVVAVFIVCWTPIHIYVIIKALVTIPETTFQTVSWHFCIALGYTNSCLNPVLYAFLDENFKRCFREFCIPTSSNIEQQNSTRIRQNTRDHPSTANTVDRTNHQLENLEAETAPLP
Sequence of Delta-type opioid receptor (P41143 whole entry): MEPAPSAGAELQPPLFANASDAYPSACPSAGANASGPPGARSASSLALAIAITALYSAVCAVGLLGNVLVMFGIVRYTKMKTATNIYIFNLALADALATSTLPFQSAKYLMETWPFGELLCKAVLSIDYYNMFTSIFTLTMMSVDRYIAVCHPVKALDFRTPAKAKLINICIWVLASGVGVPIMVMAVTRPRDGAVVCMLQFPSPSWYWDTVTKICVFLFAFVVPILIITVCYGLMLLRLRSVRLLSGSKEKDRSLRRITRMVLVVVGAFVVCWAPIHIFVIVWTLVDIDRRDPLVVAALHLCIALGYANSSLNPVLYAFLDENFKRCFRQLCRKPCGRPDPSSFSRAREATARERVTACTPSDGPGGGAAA

Turning to `CCNC(=O)c1ccc(C(=C2CC3CCC(C2)N3CCCc2ccccc2)c2ccccc2)cc1`, the values for the Ki in assay [1] and in assay [2] were 12.3 nM and 4.8 nM, respectively.
Regarding `CCNC(=O)c1ccc(C(=C2CC3CCC(C2)N3CCc2ccccc2)c2cccc(O)c2)cc1`, the Ki in assay [2] worked out at 0.222 nM.
Regarding `CCNC(=O)c1ccc(C(=C2CC3CCC(C2)N3CCc2ccccc2)c2ccc(O)cc2)cc1`, the Ki in assay [1] was found to be 7.8 nM; in assay [2], 21.7 nM.
Consider `O=C(NCCF)c1ccc(C(=C2CC3CCC(C2)N3CCc2ccccc2)c2ccccc2)cc1`, for which the Ki stood at 32 nM in assay [1] and 2.99 nM in assay [2].
`CCNC(=O)c1ccc(C(=C2CC3CCC(C2)N3CC=C(C)C)c2cccc(OC)c2)cc1`: the inhibition constant (Ki) in assay [1] stood at 0.72 nM; in assay [2], 2.04 nM.
As to `CCNC(=O)c1ccc(C(=C2CC3CCC(C2)N3Cc2ccccn2)c2ccccc2)cc1`, the inhibition constant (Ki) in assay [1] is 0.86 nM; in assay [2], 17 nM.
Consider `C=CCN1[C@@H]2CC[C@H]1C/C(=C(\c1ccccc1)c1ccc(C(=O)NCC)cc1)C2`, for which the results for the inhibition constant Ki in assay [1] and in assay [2] were 7.72 nM and 19.1 nM, respectively.
As for `CCCCNC(=O)c1ccc(C(=C2CC3CCC(C2)N3CCc2ccccc2)c2ccccc2)cc1`, the Ki in assay [1] was 49.3 nM; in assay [2] it was 21.7 nM.
As for `CCNC(=O)c1ccc(C(=C2CC3CCC(C2)N3CCOc2ccccc2)c2ccccc2)cc1`, the Ki in assay [1] came out at 63.4 nM; in assay [2], 93 nM.
With `CCNC(=O)c1ccc(C(=C2CC3CCC(C2)N3CCc2ccccc2)c2ccc(OC)cc2)cc1`, the inhibition constant (Ki) amounted to 11.3 nM in assay [1] and 6.1 nM in assay [2].
In the case of `CCNC(=O)c1ccc(C(=C2CC3CCC(C2)N3)c2cccc(OC)c2)cc1`, the results for the inhibition constant Ki in assay [1] and in assay [2] were 13.2 nM and 96 nM, respectively.
Turning to `CCNC(=O)c1ccc(C(=C2CC3CCC(C2)N3CCc2c[nH]c3ccccc23)c2ccccc2)cc1`, the Ki in assay [1] turned out to be 23.7 nM; in assay [2], 84 nM.
The corresponding values for `CC(C)(C)NC(=O)c1ccc(C(=C2CC3CCC(C2)N3CCc2ccccc2)c2ccccc2)cc1` are 352 nM and 608 nM.
Turning to `CCNC(=O)c1ccc(C(=C2CC3CCC(C2)N3CCO)c2ccccc2)cc1`, the Ki in assay [1] worked out at 26.2 nM; in assay [2] it was 76 nM.
Take `CCNC(=O)c1ccc(C(=C2CC3CCC(C2)N3Cc2ccccc2Cl)c2cccc(OC)c2)cc1`: the inhibitory constant (Ki) in assay [1] was found to be 6.66 nM; in assay [2] it was 57.7 nM.
The corresponding values for `O=C(NC1CC1)c1ccc(C(=C2CC3CCC(C2)N3CCc2ccccc2)c2ccccc2)cc1` are 20 nM and 1.01 nM.
For `CCNC(=O)c1ccc(/C(=C2/C[C@H]3CC[C@@H](C2)N3C)c2ccccc2)cc1`, in that order: 6.39 nM and 42.5 nM.
For `C=CCN1[C@@H]2CC[C@H]1C/C(=C(/c1ccccc1)c1ccc(C(=O)NCC)cc1)C2`, in that order: 2.24 nM and 10.5 nM.
Regarding `CCNC(=O)c1ccc(C(=C2CC3CCC(C2)N3Cc2cccs2)c2cccc(OC)c2)cc1`, the figures for the inhibition constant (Ki) in assay [1] and in assay [2] were 0.51 nM and 3.79 nM, respectively.
Regarding `C=CCN1C2CCC1CC(=C(c1ccc(C(=O)NCC)cc1)c1cccc(OC)c1)C2`, the figures for the inhibition constant (Ki) in assay [1] and in assay [2] were 1.45 nM and 13.8 nM, respectively.
For `C=CCN1C2CCC1CC(=C(c1ccc(C(=O)NCC)cc1)c1cccc(O)c1)C2`, the figures for the Ki in assay [1] and in assay [2] were 0.384 nM and 9.58 nM, respectively.
With `CNC(=O)c1ccc(C(=C2CC3CCC(C2)N3CCc2ccccc2)c2ccccc2)cc1`, the results for the Ki in assay [1] and in assay [2] were 13 nM and 0.14 nM, respectively.
Consider `COCCNC(=O)c1ccc(C(=C2CC3CCC(C2)N3CCc2ccccc2)c2ccccc2)cc1`, for which the Ki came to 103 nM in assay [1] and 163 nM in assay [2].
Regarding `O=C(Nc1nccs1)c1ccc(C(=C2CC3CCC(C2)N3CCc2ccccc2)c2ccccc2)cc1`, the Ki is 49.5 nM in assay [1] and 53 nM in assay [2].
As for `O=C(Nc1ccccc1)c1ccc(C(=C2CC3CCC(C2)N3CCc2ccccc2)c2ccccc2)cc1`, the Ki was found to be 1520 nM in assay [1] and 4240 nM in assay [2].
With `CCNC(=O)c1ccc(/C(=C2/C[C@H]3CC[C@@H](C2)N3)c2ccccc2)cc1`, the Ki stood at 5.48 nM in assay [1] and 74.7 nM in assay [2].
In the case of `CCNC(=O)c1ccc(C(=C2CC3CCC(C2)N3c2cccn2C)c2ccccc2)cc1`, the inhibition constant (Ki) in assay [1] came to 20.8 nM; in assay [2] it was 59 nM.
On to `CCNC(=O)c1ccc(C(=C2CC3CCC(C2)N3CCc2ccccc2)c2cccc(OC)c2)cc1`, for which the figures for the Ki in assay [1] and in assay [2] were 19.8 nM and 0.654 nM, respectively.
Take `CCNC(=O)c1ccc(C(=C2CC3CCC(C2)N3CC=C(C)C)c2cccc(O)c2)cc1`: the inhibition constant Ki in assay [1] came to 2.02 nM; in assay [2] it was 2.52 nM.
As to `CCNC(=O)c1ccc(C(=C2CC3CCC(C2)N3Cc2[nH]cnc2C)c2ccccc2)cc1`, the Ki in assay [1] came to 15.9 nM; in assay [2], 61 nM.
In the case of `CCNC(=O)c1ccc(C(=C2CC3CCC(C2)N3Cc2c[nH]cn2)c2ccccc2)cc1`, the Ki was determined as 3.88 nM in assay [1] and 101 nM in assay [2].
As for `CCNC(=O)c1ccc(C(=C2CC3CCC(C2)N3)c2ccc(O)cc2)cc1`, the inhibition constant (Ki) came out at 4.5 nM in assay [1] and 265 nM in assay [2].
Regarding `CCNC(=O)c1ccc(C(=C2CC3CCC(C2)N3Cc2ccccc2Cl)c2cccc(O)c2)cc1`, the inhibition constant (Ki) in assay [1] came out at 2.09 nM; in assay [2], 15 nM.
As for `CCNC(=O)c1ccc(/C(=C2\C[C@H]3CC[C@@H](C2)N3C)c2ccccc2)cc1`, the Ki in assay [1] was 292 nM; in assay [2], 304 nM.
On to `CCNC(=O)c1ccc(/C(=C2\C[C@H]3CC[C@@H](C2)N3CCc2ccccc2)c2ccccc2)cc1`, for which, in assay [3], the 50% effect level (ED50) was put at a dose of 25 µmol/kg. Also, the Ki amounted to 46.7 nM in assay [1] and 0.26 nM in assay [2]. The same molecule had a Stimulation in assay [4] of 490%.
`CCN(CC)C(=O)c1ccc(/C(=C2\C[C@H]3CC[C@@H](C2)N3CCc2ccccc2)c2ccccc2)cc1`: the median effective dose (ED50) in assay [3] amounted to 25 µmol/kg.
With `CCNC(=O)c1ccc(C(=C2CC3CCC(C2)N3Cc2cccs2)c2cccc(O)c2)cc1`, the results for the Ki in assay [1] and in assay [2] were 0.152 nM and 0.664 nM, respectively.
`CCNC(=O)c1ccc(C(=C2CC3CCC(C2)N3Cc2cccs2)c2ccc(OC)cc2)cc1`: the Ki worked out at 1.32 nM in assay [1] and 13.5 nM in assay [2].
The corresponding values for `CCNC(=O)c1ccc(/C(=C2/C[C@H]3CC[C@@H](C2)N3CCc2ccccc2)c2ccccc2)cc1` are 4.69 nM and 7.16 nM.
The corresponding values for `CCCNC(=O)c1ccc(C(=C2CC3CCC(C2)N3CCc2ccccc2)c2ccccc2)cc1` are 22 nM and 1.6 nM.
For `CCNC(=O)c1ccc(C(=C2CC3CCC(C2)N3Cc2ccccc2Cl)c2ccc(O)cc2)cc1`, the figures for the Ki in assay [1] and in assay [2] were 0.93 nM and 8.72 nM, respectively.
`CCNC(=O)c1ccc(C(=C2CC3CCC(C2)N3Cc2cccs2)c2ccc(O)cc2)cc1`: the Ki in assay [1] was determined as 0.25 nM; in assay [2], 6.77 nM.
For `O=C(NC1CCCCC1)c1ccc(C(=C2CC3CCC(C2)N3CCc2ccccc2)c2ccccc2)cc1`, in that order: 924 nM and 717 nM.
Consider `NC(=O)c1ccc(C(=C2CC3CCC(C2)N3CCc2ccccc2)c2ccccc2)cc1`, for which the Ki in assay [1] was determined as 35.9 nM; in assay [2] it was 39.6 nM.
For the molecule `CCNC(=O)c1ccc(C(=C2CC3CCC(C2)N3Cc2ccccc2Cl)c2ccc(OC)cc2)cc1`, the inhibitory constant (Ki) was determined as 5.67 nM in assay [1] and 122 nM in assay [2].
